Oligonucleotides are given in HELM: sugar(base)linkage, 5' to 3'; d 2'-deoxyribose, r ribose, m 2'-O-methylribose, p phosphate. ss, as = sense and antisense strand
Also: test concentration or dose not given here.

The target of this data set is UBE2K. Nature of the data set: reporter assay of Huesken 2005. The following applies: siRNA.
In turn, “RNA1{r(G)p.r(G)p.r(C)p.r(A)p.r(G)p.r(C)p.r(U)p.r(G)p.r(C)p.r(A)p.r(G)p.r(A)p.r(G)p.r(C)p.r(C)p.r(A)p.r(G)p.r(A)p.r(U)p.d(T)p.d(T)}|RNA2{r(A)p.r(U)p.r(C)p.r(U)p.r(G)p.r(G)p.r(C)p.r(U)p.r(C)p.r(U)p.r(G)p.r(C)p.r(A)p.r(G)p.r(C)p.r(U)p.r(G)p.r(C)p.r(C)p.d(A)p.d(A)}$$$RNA1{StrandType:ss}|RNA2{StrandType:as}$” returned a normalised inhibition (eCFP-eYFP dual reporter) of 81.8%. The result for “RNA1{r(G)p.r(G)p.r(G)p.r(G)p.r(C)p.r(U)p.r(A)p.r(U)p.r(U)p.r(U)p.r(G)p.r(U)p.r(U)p.r(U)p.r(G)p.r(G)p.r(A)p.r(U)p.r(A)p.d(T)p.d(T)}|RNA2{r(U)p.r(A)p.r(U)p.r(C)p.r(C)p.r(A)p.r(A)p.r(A)p.r(C)p.r(A)p.r(A)p.r(A)p.r(U)p.r(A)p.r(G)p.r(C)p.r(C)p.r(C)p.r(C)p.d(T)p.d(G)}$$$RNA1{StrandType:ss}|RNA2{StrandType:as}$” reads 81.2%; that for “RNA1{r(G)p.r(G)p.r(U)p.r(U)p.r(U)p.r(A)p.r(U)p.r(C)p.r(A)p.r(C)p.r(U)p.r(A)p.r(A)p.r(A)p.r(A)p.r(U)p.r(A)p.r(U)p.r(G)p.d(T)p.d(T)}|RNA2{r(C)p.r(A)p.r(U)p.r(A)p.r(U)p.r(U)p.r(U)p.r(U)p.r(A)p.r(G)p.r(U)p.r(G)p.r(A)p.r(U)p.r(A)p.r(A)p.r(A)p.r(C)p.r(C)p.d(G)p.d(G)}$$$RNA1{StrandType:ss}|RNA2{StrandType:as}$”, 81.2%; that for “RNA1{r(G)p.r(U)p.r(A)p.r(C)p.r(A)p.r(A)p.r(A)p.r(C)p.r(A)p.r(A)p.r(A)p.r(A)p.r(U)p.r(C)p.r(C)p.r(C)p.r(G)p.r(A)p.r(A)p.d(T)p.d(T)}|RNA2{r(U)p.r(U)p.r(C)p.r(G)p.r(G)p.r(G)p.r(A)p.r(U)p.r(U)p.r(U)p.r(U)p.r(G)p.r(U)p.r(U)p.r(U)p.r(G)p.r(U)p.r(A)p.r(C)p.d(T)p.d(G)}$$$RNA1{StrandType:ss}|RNA2{StrandType:as}$”, 73.9%. The result for “RNA1{r(G)p.r(U)p.r(A)p.r(G)p.r(U)p.r(A)p.r(G)p.r(C)p.r(A)p.r(A)p.r(A)p.r(U)p.r(C)p.r(A)p.r(G)p.r(U)p.r(A)p.r(C)p.r(A)p.d(T)p.d(T)}|RNA2{r(U)p.r(G)p.r(U)p.r(A)p.r(C)p.r(U)p.r(G)p.r(A)p.r(U)p.r(U)p.r(U)p.r(G)p.r(C)p.r(U)p.r(A)p.r(C)p.r(U)p.r(A)p.r(C)p.d(A)p.d(G)}$$$RNA1{StrandType:ss}|RNA2{StrandType:as}$” reads 92.1%; that for “RNA1{r(G)p.r(U)p.r(U)p.r(U)p.r(G)p.r(G)p.r(A)p.r(U)p.r(A)p.r(U)p.r(C)p.r(C)p.r(U)p.r(G)p.r(A)p.r(A)p.r(A)p.r(G)p.r(A)p.d(T)p.d(T)}|RNA2{r(U)p.r(C)p.r(U)p.r(U)p.r(U)p.r(C)p.r(A)p.r(G)p.r(G)p.r(A)p.r(U)p.r(A)p.r(U)p.r(C)p.r(C)p.r(A)p.r(A)p.r(A)p.r(C)p.d(A)p.d(A)}$$$RNA1{StrandType:ss}|RNA2{StrandType:as}$”, 87.1%; that for “RNA1{r(U)p.r(A)p.r(C)p.r(A)p.r(A)p.r(A)p.r(C)p.r(A)p.r(A)p.r(A)p.r(A)p.r(U)p.r(C)p.r(C)p.r(C)p.r(G)p.r(A)p.r(A)p.r(A)p.d(T)p.d(T)}|RNA2{r(U)p.r(U)p.r(U)p.r(C)p.r(G)p.r(G)p.r(G)p.r(A)p.r(U)p.r(U)p.r(U)p.r(U)p.r(G)p.r(U)p.r(U)p.r(U)p.r(G)p.r(U)p.r(A)p.d(C)p.d(T)}$$$RNA1{StrandType:ss}|RNA2{StrandType:as}$”, 66.1%.

“RNA1{r(U)p.r(A)p.r(G)p.r(A)p.r(U)p.r(C)p.r(U)p.r(U)p.r(G)p.r(U)p.r(A)p.r(G)p.r(A)p.r(U)p.r(G)p.r(A)p.r(G)p.r(A)p.r(A)p.d(T)p.d(T)}|RNA2{r(U)p.r(U)p.r(C)p.r(U)p.r(C)p.r(A)p.r(U)p.r(C)p.r(U)p.r(A)p.r(C)p.r(A)p.r(A)p.r(G)p.r(A)p.r(U)p.r(C)p.r(U)p.r(A)p.d(C)p.d(T)}$$$RNA1{StrandType:ss}|RNA2{StrandType:as}$” yielded a normalised inhibition (eCFP-eYFP dual reporter) of 85.7%. Next, “RNA1{r(U)p.r(A)p.r(G)p.r(U)p.r(A)p.r(G)p.r(C)p.r(A)p.r(A)p.r(A)p.r(U)p.r(C)p.r(A)p.r(G)p.r(U)p.r(A)p.r(C)p.r(A)p.r(A)p.d(T)p.d(T)}|RNA2{r(U)p.r(U)p.r(G)p.r(U)p.r(A)p.r(C)p.r(U)p.r(G)p.r(A)p.r(U)p.r(U)p.r(U)p.r(G)p.r(C)p.r(U)p.r(A)p.r(C)p.r(U)p.r(A)p.d(C)p.d(A)}$$$RNA1{StrandType:ss}|RNA2{StrandType:as}$”: 87.9%. The result for “RNA1{r(U)p.r(A)p.r(U)p.r(U)p.r(G)p.r(U)p.r(C)p.r(A)p.r(U)p.r(U)p.r(G)p.r(C)p.r(A)p.r(A)p.r(G)p.r(C)p.r(A)p.r(C)p.r(U)p.d(T)p.d(T)}|RNA2{r(A)p.r(G)p.r(U)p.r(G)p.r(C)p.r(U)p.r(U)p.r(G)p.r(C)p.r(A)p.r(A)p.r(U)p.r(G)p.r(A)p.r(C)p.r(A)p.r(A)p.r(U)p.r(A)p.d(A)p.d(T)}$$$RNA1{StrandType:ss}|RNA2{StrandType:as}$” reads 89.2%; that for “RNA1{r(U)p.r(C)p.r(C)p.r(A)p.r(G)p.r(A)p.r(C)p.r(A)p.r(C)p.r(A)p.r(C)p.r(C)p.r(A)p.r(U)p.r(A)p.r(U)p.r(G)p.r(A)p.r(A)p.d(T)p.d(T)}|RNA2{r(U)p.r(U)p.r(C)p.r(A)p.r(U)p.r(A)p.r(U)p.r(G)p.r(G)p.r(U)p.r(G)p.r(U)p.r(G)p.r(U)p.r(C)p.r(U)p.r(G)p.r(G)p.r(A)p.d(G)p.d(G)}$$$RNA1{StrandType:ss}|RNA2{StrandType:as}$”, 73.9%. Next, “RNA1{r(U)p.r(C)p.r(C)p.r(G)p.r(G)p.r(U)p.r(U)p.r(U)p.r(A)p.r(U)p.r(C)p.r(A)p.r(C)p.r(U)p.r(A)p.r(A)p.r(A)p.r(A)p.r(U)p.d(T)p.d(T)}|RNA2{r(A)p.r(U)p.r(U)p.r(U)p.r(U)p.r(A)p.r(G)p.r(U)p.r(G)p.r(A)p.r(U)p.r(A)p.r(A)p.r(A)p.r(C)p.r(C)p.r(G)p.r(G)p.r(A)p.d(C)p.d(C)}$$$RNA1{StrandType:ss}|RNA2{StrandType:as}$”: 73%; “RNA1{r(U)p.r(C)p.r(U)p.r(U)p.r(G)p.r(U)p.r(A)p.r(G)p.r(A)p.r(U)p.r(G)p.r(A)p.r(G)p.r(A)p.r(A)p.r(U)p.r(U)p.r(U)p.r(U)p.d(T)p.d(T)}|RNA2{r(A)p.r(A)p.r(A)p.r(A)p.r(U)p.r(U)p.r(C)p.r(U)p.r(C)p.r(A)p.r(U)p.r(C)p.r(U)p.r(A)p.r(C)p.r(A)p.r(A)p.r(G)p.r(A)p.d(T)p.d(C)}$$$RNA1{StrandType:ss}|RNA2{StrandType:as}$”: 84.4%; “RNA1{r(U)p.r(G)p.r(A)p.r(A)p.r(A)p.r(G)p.r(A)p.r(U)p.r(C)p.r(A)p.r(A)p.r(U)p.r(G)p.r(G)p.r(G)p.r(C)p.r(A)p.r(G)p.r(C)p.d(T)p.d(T)}|RNA2{r(G)p.r(C)p.r(U)p.r(G)p.r(C)p.r(C)p.r(C)p.r(A)p.r(U)p.r(U)p.r(G)p.r(A)p.r(U)p.r(C)p.r(U)p.r(U)p.r(U)p.r(C)p.r(A)p.d(G)p.d(G)}$$$RNA1{StrandType:ss}|RNA2{StrandType:as}$”: 57.3%. Turning to “RNA1{r(U)p.r(G)p.r(A)p.r(A)p.r(G)p.r(G)p.r(A)p.r(G)p.r(G)p.r(A)p.r(A)p.r(G)p.r(A)p.r(U)p.r(A)p.r(C)p.r(C)p.r(A)p.r(A)p.d(T)p.d(T)}|RNA2{r(U)p.r(U)p.r(G)p.r(G)p.r(U)p.r(A)p.r(U)p.r(C)p.r(U)p.r(U)p.r(C)p.r(C)p.r(U)p.r(C)p.r(C)p.r(U)p.r(U)p.r(C)p.r(A)p.d(T)p.d(A)}$$$RNA1{StrandType:ss}|RNA2{StrandType:as}$”, the normalised inhibition (eCFP-eYFP dual reporter) came out at 82.7%. The result for “RNA1{r(U)p.r(G)p.r(G)p.r(C)p.r(A)p.r(U)p.r(C)p.r(C)p.r(U)p.r(A)p.r(A)p.r(U)p.r(A)p.r(U)p.r(U)p.r(A)p.r(G)p.r(U)p.r(U)p.d(T)p.d(T)}|RNA2{r(A)p.r(A)p.r(C)p.r(U)p.r(A)p.r(A)p.r(U)p.r(A)p.r(U)p.r(U)p.r(A)p.r(G)p.r(G)p.r(A)p.r(U)p.r(G)p.r(C)p.r(C)p.r(A)p.d(T)p.d(A)}$$$RNA1{StrandType:ss}|RNA2{StrandType:as}$” reads 61.6%; that for “RNA1{r(U)p.r(G)p.r(G)p.r(G)p.r(C)p.r(A)p.r(G)p.r(C)p.r(U)p.r(G)p.r(C)p.r(A)p.r(A)p.r(U)p.r(G)p.r(A)p.r(C)p.r(U)p.r(C)p.d(T)p.d(T)}|RNA2{r(G)p.r(A)p.r(G)p.r(U)p.r(C)p.r(A)p.r(U)p.r(U)p.r(G)p.r(C)p.r(A)p.r(G)p.r(C)p.r(U)p.r(G)p.r(C)p.r(C)p.r(C)p.r(A)p.d(T)p.d(T)}$$$RNA1{StrandType:ss}|RNA2{StrandType:as}$”, 44.2%. The result for “RNA1{r(U)p.r(G)p.r(U)p.r(A)p.r(G)p.r(A)p.r(U)p.r(G)p.r(A)p.r(G)p.r(A)p.r(A)p.r(U)p.r(U)p.r(U)p.r(U)p.r(A)p.r(C)p.r(A)p.d(T)p.d(T)}|RNA2{r(U)p.r(G)p.r(U)p.r(A)p.r(A)p.r(A)p.r(A)p.r(U)p.r(U)p.r(C)p.r(U)p.r(C)p.r(A)p.r(U)p.r(C)p.r(U)p.r(A)p.r(C)p.r(A)p.d(A)p.d(G)}$$$RNA1{StrandType:ss}|RNA2{StrandType:as}$” reads 89.5%. The result for “RNA1{r(U)p.r(G)p.r(U)p.r(U)p.r(U)p.r(G)p.r(G)p.r(A)p.r(U)p.r(A)p.r(U)p.r(C)p.r(C)p.r(U)p.r(G)p.r(A)p.r(A)p.r(A)p.r(G)p.d(T)p.d(T)}|RNA2{r(C)p.r(U)p.r(U)p.r(U)p.r(C)p.r(A)p.r(G)p.r(G)p.r(A)p.r(U)p.r(A)p.r(U)p.r(C)p.r(C)p.r(A)p.r(A)p.r(A)p.r(C)p.r(A)p.d(A)p.d(A)}$$$RNA1{StrandType:ss}|RNA2{StrandType:as}$” reads 58.7%; that for “RNA1{r(U)p.r(U)p.r(C)p.r(C)p.r(G)p.r(U)p.r(C)p.r(A)p.r(C)p.r(A)p.r(G)p.r(G)p.r(G)p.r(G)p.r(C)p.r(U)p.r(A)p.r(U)p.r(U)p.d(T)p.d(T)}|RNA2{r(A)p.r(A)p.r(U)p.r(A)p.r(G)p.r(C)p.r(C)p.r(C)p.r(C)p.r(U)p.r(G)p.r(U)p.r(G)p.r(A)p.r(C)p.r(G)p.r(G)p.r(A)p.r(A)p.d(C)p.d(T)}$$$RNA1{StrandType:ss}|RNA2{StrandType:as}$”, 55.5%.

The record behind these values is the OligoGym collection.
